This is an account of results in US11976083B2, “Inhibitors of peptidylarginine deiminases” (Gilead Sciences, Inc., priority 2020, dated 2024).

The target in this experiment is T1, human PAD4 (Homo sapiens, UniProt Q9UM07).
T1 construct: human PAD4 (NM_012387), A2-P663, was PCR amplified; His-SUMO (N, cleaved yes); made in house; host or cells: E. coli BL21(DE3)
Briefly: In vitro PAD4 BAEE biochemical assay. Particulars: BAEE substrate 3 mM, 5 nM PAD4, 2 mM calcium chloride; geometric mean of multiple experiments. In short, it runs like this:
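Ammonia produced by BAEE deimination (3 mM substrate, 2 h, 25 °C) was read as fluorescent isoindole after o-phthalaldehyde/DTT derivatization, ex 405 nm/em 535 nm. Human PAD4 at 5 nM final, 2 mM calcium, pH 7.6 MOPS; compound preincubated 30 min. IC50s, normalized to BB-Cl-Amidine and DMSO controls, were geometric-mean averaged.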

T1 sequence (Q9UM07 2-663): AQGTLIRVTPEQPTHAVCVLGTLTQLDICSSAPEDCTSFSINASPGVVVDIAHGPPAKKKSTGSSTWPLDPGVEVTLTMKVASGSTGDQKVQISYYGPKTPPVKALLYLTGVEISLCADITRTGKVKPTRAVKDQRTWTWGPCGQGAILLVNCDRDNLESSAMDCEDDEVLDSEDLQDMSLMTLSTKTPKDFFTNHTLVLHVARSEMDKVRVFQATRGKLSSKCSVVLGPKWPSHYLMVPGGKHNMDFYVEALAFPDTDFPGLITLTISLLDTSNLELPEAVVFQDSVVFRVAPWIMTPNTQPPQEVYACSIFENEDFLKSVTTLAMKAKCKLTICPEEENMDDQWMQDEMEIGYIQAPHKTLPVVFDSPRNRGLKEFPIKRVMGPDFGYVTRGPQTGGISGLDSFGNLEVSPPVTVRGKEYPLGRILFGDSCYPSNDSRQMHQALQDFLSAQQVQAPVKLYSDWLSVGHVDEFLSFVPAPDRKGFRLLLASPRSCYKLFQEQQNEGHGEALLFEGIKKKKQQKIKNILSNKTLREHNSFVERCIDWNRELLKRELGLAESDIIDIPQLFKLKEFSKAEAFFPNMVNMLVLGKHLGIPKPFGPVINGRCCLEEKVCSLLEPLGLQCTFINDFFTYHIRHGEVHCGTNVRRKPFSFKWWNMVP

In the case of `COc1cc(C(=O)N2CC[C@@H](OC)[C@@H](N)C2)cc2nc(-c3cc4ccc5nc4n3CCCCCC[C@@](C)(C(F)(F)F)C(=O)N[C@@H]5C)n(C)c12` [Example 719, (8~{R},11~{R})-17-[5-[(3~{S},4~{R})-3-amino-4-methoxy-piperidine-1-carbonyl]-7-methoxy-1-methyl-benzimidazol-2-yl]-8,11-dimethyl-8-(trifluoromethyl)-1,10,19-triazatricyclo[10.5.2.0^ {15,18}]nonadeca-12(19),13,15(18),16-tetraen-9-one], the IC50 was found to be 91 nM.

Turning to `COc1cc(C(=O)N2CC[C@@H](OC)[C@@H](N)C2)cc2nc(-c3cc4ccc5nc4n3CCCCCCC(c3ccccn3)C(=O)N[C@@H]5C)n(C)c12` (some centres unmarked) [Example 860, (11~{R})-17-[5-[(3~{S),4~{R})-3-amino-4-methoxy-piperidine-1-carbonyl]-7-methoxy-1-methyl-benzimidazol-2-yl]-11-methyl-8-(2-pyridyl)-1,10,19-triazatricyclo [10.5.2.0^{15,18}]nonadeca-12(19),13,15(18),16-tetraen-9-one], the IC50 amounted to 44 nM.

On to `COc1cc(C(=O)N2CC[C@@H](OC)[C@@H](N)C2)cc2nc(-c3cc4ccc5nc4n3CCCC(F)(F)C[C@H]3C[C@H]3C(=O)N[C@@H]5C)n(C)c12` [Example 859, (2~{R},5~{R},7~{R})-14-[5-[(3~{S},4~{R})-3-amino-4-methoxy-piperidine-1-carbonyl]-7-methoxy-1-methyl-benzimidazol-2-yl]-9,9-difluoro-2-methyl-3,13,19-triazatetracyclo [11.5.2.0^{5,7}.0^{16,20}] icosa-1(19),14,16(20),17-tetraen-4-one], for which the IC50 came to 38 nM.

`COCCn1c(-c2cc3ccc4nc3n2CCCCCc2nccnc2C(=O)N[C@@H]4C)nc2cc(C(=O)N3CC[C@@H](OC)[C@@H](N)C3)cc(OC)c21` [Example 510, (2~{R})-17-[5-[(3~ {S),4~{R})-3-amino-4-methoxy-piperidine-1-carbonyl]-7-methoxy-1-(2-methoxyethyl)benzimidazol-2-yl]-2-methyl-3,6,9,16,22-pentazatetracyclo[14.5.2.0^ {5,10}.0^{19,23}] tricosa-1(22),5(10),6,8,17,19 (23),20-heptaen-4-one]: the IC50 is 277 nM.

For `COc1cc(C(=O)N[C@H]2CNCC[C@@H]2F)cc2nc(-c3cc4ccc5nc4n3CCCCCc3ccccc3C(=O)N[C@@H]5C)n(C)c12` [Example 31, ~{N}-[(3~{S},4~{S})-4-fluoro-3-piperidyl]-7-methoxy-1-methyl-2-[(2~{R})-2-methyl-4-oxo-3,16,22-triazatetracyclo[14.5.2.0^{5,10}.0^{19,23}]tricosa-1(22),5,7,9,17,19(23),20-heptaen-17-yl]benzimidazole-5-carboxamide], the IC50 was 81 nM.

Regarding `C[C@H]1NC(=O)c2nccnc2CCCC(F)(F)Cn2c(-c3nc4cc(C(=O)N5C[C@H](N)[C@@H]6CC[C@H]5C6)cc(F)c4n3C3CC3)cc3ccc1nc32` [Example 483, (2~{R})-17-[5-[(1~{S},4~{R},5~{R})-4-amino-2-azabicyclo[3.2.1]octane-2-carbonyl]-1-cyclopropyl-7-fluoro-benzimidazol-2-yl]-14,14-difluoro-2-methyl-3,6,9,16,22-pentazatetracyclo[14.5.2.0^{5,10}.0^{19, 23}]tricosa-1(22),5(10),6,8,17,19(23),20-heptaen-4-one], the IC50 is 33 nM.

`COc1cc(C(=O)N2CC[C@@H](OC)[C@@H](N)C2)cc2nc(-c3cc4ccc5nc4n3CCCCCCC[C@@H](C(F)(F)F)N[C@@H]5C)n(C)c12` [Example 699, [(3~{S},4~{R})-3-amino-4-methoxy-1-piperidyl]-[7-methoxy-1-methyl-2-[(9~{S},11~ {R})-11-methyl-9-(trifluoromethyl)-1,10,19-triazatricyclo[10.5.2.0^ {15,18}]nonadeca-12(19),13,15(18),16-tetraen-17-yl]benzimidazol-5-yl] methanone]: the IC50 is 640 nM.

In the case of `COc1cc(C(=O)N2CCC[C@@H](N)C2)cc2nc(-c3cc4ccc5nc4n3C[C@@H]3C[C@H]3CO[C@@H](C)CC(=O)N[C@@H]5C)n(C)c12` [Example 267, (5~{R},8~{S},12~{R})-18-[5-[(3~{R})-3-aminopiperidine-1-carbonyl]-7-methoxy-1-methyl-benzimidazol-2-yl]-8,12-dimethyl-7-oxa-1,11,20-triazatetracyclo[11.5.2.0^{3,5}.0^{16,19}] icosa-13(20),14,16(19),17-tetraen-10-one], the IC50 is 88 nM.

As for `COc1cc(C(=O)N2CC[C@H]3OCCN[C@H]3C2)cc2nc(-c3cc4ccc5cc4n3CCCCCCC3(CC3)C(=O)N[C@@H]5C)n(C)c12` [Example 208, (11~{R})-17-[5-[(4~{a}-{S},8~{a}~{R})-2,3,4,4~{a},5,7,8,8~{a}-octahydropyrido[4,3-b][1,4]oxazine-6-carbonyl]-7-methoxy-1-methyl-benzimidazol-2-yl]-11-methyl-spiro[1,10-diazatricyclo[10.5.2.0^{15,18}]nonadeca-12(19),13,15(18),16-tetraene-8,1′-cyclopropane]-9-one], the IC50 worked out at 136 nM.

Turning to `C[C@@H]1[C@H](N)CCCN1C(=O)c1cc(F)c2c(c1)nc(-c1cc3ccc4nc3n1CCCCCc1nc3ccccc3cc1C(=O)N[C@@H]4C)n2C1CC1` [Example 830, (2~{R})-21-[5-[(2~{R}, 3~{R})-3-amino-2-methyl-piperidine-1-carbonyl]-1-cyclopropyl-7-fluoro-benzimidazol-2-yl]-2-methyl-3,13,20,26-tetrazapentacyclo[18.5.2.0^ {5,14}.0^{7,12}.0^ {23,27}]heptacosa-1(26),5(14),6,8,10,12,21, 23(27),24-nonaen-4-one], the IC50 came to 19 nM.

With `COc1cc(C(=O)N[C@@H]2CCCNC2)cc2nc(-c3cc4ccc5nc4n3CCCCCCC(C)(C)C(=O)N[C@@H]5C)n(C)c12` [Example 70, 7-methoxy-1-methyl-~{N}-[(3~{R})-3-piperidyl]-2-[(11~{R})-8,8,11-trimethyl-9-oxo-1,10,19-triazatricyclo[10.5.2.0^{15,18}]nonadeca-12(19),13,15(18),16-tetraen-17-yl]benzimidazole-5-carboxamide], the IC50 stood at 137 nM.

`COc1cc(C(=O)N2[C@H]3CC[C@@H]2[C@H](N)C3)cc2nc(-c3cc4ccc5nc4n3CCCCCCCCCC(=O)N[C@@H]5C)c(C)n12` [Example 287, (13~{R})-19-[7-[(1~{R},2~{R},4~{S})-2-amino-7-azabicyclo[2.2.1]heptane-7-carbonyl]-5-methoxy-3-methyl-imidazo[1,2-a]pyridin-2-yl]-13-methyl-1,12,21-triazatricyclo[12.5.2.0^{17,20}]henicosa-14(21),15,17(20),18-tetraen-11-one]: the IC50 worked out at 55 nM.

In the case of `COc1cc(C(=O)N2CC[C@@H](OC(F)F)[C@@H](N)C2)cc2nc(-c3cc4ccc5nc4n3CCCCCc3cc4ccccc4nc3C(=O)N(C)[C@@H]5C)n(C)c12` [Example 736, (2~{R})-21-[5-[(3~{S},4~{R})-3-amino-4-(difluoromethoxy)piperidine-1-carbonyl]-7-methoxy-1-methyl-benzimidazol-2-yl]-2,3-dimethyl-3,6,20,26-tetrazapentacyclo[18.5.2.0^ {5,14}.0^{7,12}.0^{23,27}] heptacosa-1(26),5(14), 6,8,10,12,21,23(27),24-nonaen-4-one], the IC50 came out at 304 nM.

On to `COc1cc(C(=O)N2CCC[C@@H](N)C2)cc2nc(-c3cc4ccc5nc4n3CCCCCCC(=O)Nc3ccncc3-5)n(C)c12` [Example 45, 17-[5-[(3~{R})-3-aminopiperidine-1-carbonyl]-7-methoxy-1-methyl-benzimidazol-2-yl]-4,8,16,22-tetrazatetracyclo[14.5.2.0^{2,7}.0^{19,23}] tricosa-1(22),2,4,6,17,19(23),20-heptaen-9-one], for which the IC50 worked out at 4960 nM.

For the compound `C[C@H]1NC(=O)c2c(C3CC3)cc(Cl)nc2CCCCCn2c(-c3nc4cc(C(=O)N5C[C@H](N)[C@@H]6CC[C@H]5C6)cc(F)c4n3C3CC3)cc3ccc1nc32` [Example 911, (2~{R})-17-[5-[(1~{S},4~{R}, 5~{R})-4-amino-2-azabicyclo[3.2.1]octane-2-carbonyl]-1-cyclopropyl-7-fluoro-benzimidazol-2-yl]-8-chloro-6-cyclopropyl-2-methyl-3,9,16,22-tetrazatetracyclo[14.5.2.0^ {5,10}.0^{19,23}]tricosa-1(22),5(10),6,8,17,19(23),20-heptaen-4-one], the IC50 is 61 nM.

Consider `COc1cc(C(=O)N2C[C@H](N)[C@@H]3CC[C@H]2C3)cc2nc(-c3cc4ccc5nc4n3CCCCCc3cc(C(F)(F)F)ncc3C(=O)N[C@@H]5C)n(C3CC3)c12` [Example 942, (2~{R})-17-[5-[(1~{S},4~{R},5~ {R})-4-amino-2-azabicyclo [3.2.1]octane-2-carbonyl]-1-cyclopropyl-7-methoxy-benzimidazol-2-yl]-2-methyl-8-(trifluoromethyl)-3,7,16,22-tetrazatetracyclo[14.5.2.0^ {5,10).0^{19,23}]tricosa-1(22), 5(10),6,8,17,19(23),20-heptaen-4-one], for which the IC50 amounted to 72 nM.

`COc1cc(C(=O)N2[C@H]3CC[C@@H]2[C@H](N)C3)cc2nc(-c3cc4ccc5nc4n3CCCCCCOc3ncccc3-5)n(C)c12` [Example 83, [(1~{R},2~{R},4~{S})-2-amino-7-azabicyclo[2.2.1]heptan-7-yl]-[7-methoxy-1-methyl-2-(8-oxa-6,15,21-triazatetracyclo[13.5.2.0^{2,7}.0^{18,22}]docosa-1(21),2,4,6,16,18(22),19-heptaen-16-yl)benzimidazol-5-yl]methanone]: the IC50 turned out to be 204 nM.
